Data reported in PubChem BioAssay (NCI).
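All cell lines were grown in 96-well plates and treated with compound for 48 hours. TGI marks complete inhibition of growth.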

Assays:
Test in all cases: NCI tumour cell line growth inhibition, 48 h
786-0 renal = system: 786-0 renal
A549 NSCLC = system: A549 NSCLC
BT-549 breast = system: BT-549 breast
CAKI-1 renal = system: CAKI-1 renal
HCT-15 colon = system: HCT-15 colon
MALME-3M melanoma = system: MALME-3M melanoma
MDA-MB-435 = system: MDA-MB-435
NCI-H226 lung = system: NCI-H226 lung
NCI-H460 lung = system: NCI-H460 lung
SF-268 CNS = system: SF-268 CNS
SF-295 CNS = system: SF-295 CNS

| Compound | TGI (786-0 renal) [µM] | TGI (A549 NSCLC) [µM] | TGI (BT-549 breast) [µM] | TGI (CAKI-1 renal) [µM] | TGI (HCT-15 colon) [µM] | TGI (MALME-3M melanoma) [µM] | TGI (MDA-MB-435) [µM] | TGI (NCI-H226 lung) [µM] | TGI (NCI-H460 lung) [µM] | TGI (SF-268 CNS) [µM] | TGI (SF-295 CNS) [µM] |
| --- | --- | --- | --- | --- | --- | --- | --- | --- | --- | --- | --- |
| c1ccc(-c2cc(-c3cc(-c4ccccc4)n[nH]3)[nH]n2)cc1 | > 100 | > 100 | > 100 | > 100 | > 100 | > 100 | > 100 | > 100 | > 100 | > 100 | > 100 |
| N#Cc1nsnc1-c1nc(-c2nsnc2C#N)nc(-c2nsnc2C#N)n1 | > 100 | – | > 100 | > 100 | > 100 | > 100 | > 100 | > 100 | > 100 | > 100 | > 100 |
| CC(C)(C)OC(=O)/C=C/C(=O)O/C=C/[N+](=O)[O-] | > 100 | > 100 | – | > 100 | > 100 | – | > 100 | > 100 | > 100 | > 100 | > 100 |
| c1ccc2c(Cc3c[nH]c4ccccc34)c[nH]c2c1 | 33.6 | 57 | 36.8 | 31.4 | > 100 | 51 | 31.3 | 22.5 | 40.5 | 45.7 | 43.8 |
| Nc1ccccc1Sc1ccc(Cl)cc1 | – | > 100 | – | – | > 100 | > 100 | – | 26.2 | 68.9 | > 100 | > 100 |
| O=[N+]([O-])C(=C/C1CCCCC1)/C(=C\C1CCCCC1)[N+](=O)[O-] | 4.11 | 49 | 12.5 | 11.1 | 3.76 | 6.69 | 20.4 | 17.9 | 12.5 | 14.7 | 32.8 |
| O=C1CNc2cc(N3CCN(c4cccc(C(F)(F)F)c4)CC3)ccc2N1 | > 100 | > 100 | > 100 | > 100 | > 100 | 69.9 | > 100 | > 100 | > 100 | > 100 | > 92.3 |
| O=C(c1ccc(Cl)cc1)N(C(=S)N1CCN(c2ccccc2)CC1)c1ccccc1 | > 100 | > 100 | – | > 100 | > 100 | > 100 | – | > 100 | > 100 | > 100 | > 100 |
| CCO[C@H]1C[C@@H](c2ccccc2)[C@]2(C)C[C@H](C(=O)OC)ON2O1 | > 100 | > 100 | > 100 | > 100 | > 100 | > 100 | > 100 | > 100 | – | > 100 | > 100 |
| Cc1ccc(N2C(=O)CC(=O)N(NC(=O)C(C)Oc3ccccc3C)C2=S)cc1 (stereo not given) | > 100 | > 100 | > 100 | > 100 | > 100 | > 100 | > 100 | > 100 | > 100 | > 100 | > 100 |
